The record followed here is patent US6835382B2, “Ii peptide therapeutics to enhance antigen presentation” (University of Massachusetts, priority 1996, dated 2004).

The test system of assay [1] is HLA-DR1 molecules. In words: release of biotin-labeled hMBP(90-102) from HLA-DR1 in the presence of unlabeled hMBP (assay II). The class given is binding, human. The conditions noted are these: Table 37, unlabeled hMBP(90-102) 250 μM.
In assay [2] the target is T1, HLA-DR1 molecules (Homo sapiens, UniProt P01903+P01911, A100R/D57E/F55L/F60I/F76Y/I96L/L162R/M171V/P40L/Q125E/R42F/V115G/Y59C).
T1 construct: The HLA-DR alpha gene was truncated after Asn^192 to remove transmembranal and cytoplasmic regions from the protein product; A gene coding for the HLA-DR1 beta chain was truncated after position Lys^198, again to delete the transmembranal region; made in house; host or cells: insect cell line printed as HS / H5 (Invitrogen), co-infected with two baculoviruses; concentrated culture supernatant captured on 12CA5 antibody
Briefly: binding of biotin-labeled hMBP(90-102) to "empty" HLA-DR1 (assay IV). As to conditions: Table 39; AE101 series compound 64 μM; biotin-labeled hMBP(90-102) 50 μM, 37° C., 1 h; no enhancement = 1.

No end group written: not given here.

For the substance “cyclic LRMKLPK (bridge (positions not given here); also: cyclic, ring type not given here) [AE381, “head-to-tail” cyclization from the amino-terminus to the carboxyl-terminus of AE114]”, the “Relative Release, With unlabeled hMBP(90-102), 1 μM” value in the assay with HLA-DR1 molecules [1] (AE101 series compound 1 μM) was 0.09. In the assay with HLA-DR1 molecules [1] (AE101 series compound 64 μM), the “Relative Release, With unlabeled hMBP(90-102), 64 μM” value is reported as −0.19. The “Relative Enhancement” value with HLA-DR1 molecules [2] came to 1.84.
